From patent US10426781B2, “Oral formulation and suspension of an oncology drug” (SUN PHARMA GLOBAL FZE, priority 2013, dated 2019)

Key:
[1] = Surface area of sonidegib drug substance; type: physicochemical
[2] = Solubility of sonidegib phosphate in various media; type: physicochemical
Text: Solubility of Sonidegib Phosphate in Various Media

Structure (SMILES): Cc1c(C(=O)Nc2ccc(N3C[C@@H](C)O[C@@H](C)C3)nc2)cccc1-c1ccc(OC(F)(F)F)cc1 [Sonidegib, N-(6-((2R,6S)-2,6-dimethylmorpholino)pyridin-3-yl)-2-methyl-4′-(trifluoromethoxy)-[1,1′-biphenyl]-3-carboxamide]
- surface area [1]: Sonidegib has a very high surface area (270 m2/g) and a porous structure that leads to poor water solubility.

Structure (SMILES): Cc1c(C(=O)Nc2ccc(N3C[C@@H](C)O[C@@H](C)C3)nc2)cccc1-c1ccc(OC(F)(F)F)cc1 [Sonidegib Phosphate]
- solubility ([2]; acetate buffer, pH 4.5, aqueous buffer): < 0.2 µg/mL
- solubility ([2]; phosphate buffer, pH 6.8, aqueous buffer): < 0.2 µg/mL
- solubility ([2]; phosphate buffer, pH 7.4, aqueous buffer): < 0.2 µg/mL
- solubility ([2]; simulated gastric fluid, 0.01N HCl, pH 2.0): 18 µg/mL
- solubility ([2]; simulated gastric fluid, 0.1N HCl, pH 1.0): 4 µg/mL
- solubility ([2]; water): 7 µg/mL
